Measured values as given in US10214519B2, “Phosphatidylinositol 3-kinase inhibitors” (Gilead Sciences, Inc., priority 2016, dated 2019).
pIC50: −log10 of the molar value.

Biological target: PI3Kβ (Homo sapiens (Human), UniProt P42338)
Experiment: PI3K isoform TR-FRET enzymatic assay (PI3Kβ)
Assay type: biochemical
Settings: 2× Km ATP, 30 minutes at 25° C.
Outline: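 Heterodimeric recombinant PI3Kβ was incubated with compound 30 minutes at 25° C. Product was detected by TR-FRET competition with 10 nM labeled PIP3 for 35 nM Eu-GRP-1 PH domain after EDTA stop. Data were normalized to 1 μM wortmannin and DMSO, and IC50 was taken from a four-parameter fit.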

PI3Kβ, sequence (P42338 whole entry, canonical isoform): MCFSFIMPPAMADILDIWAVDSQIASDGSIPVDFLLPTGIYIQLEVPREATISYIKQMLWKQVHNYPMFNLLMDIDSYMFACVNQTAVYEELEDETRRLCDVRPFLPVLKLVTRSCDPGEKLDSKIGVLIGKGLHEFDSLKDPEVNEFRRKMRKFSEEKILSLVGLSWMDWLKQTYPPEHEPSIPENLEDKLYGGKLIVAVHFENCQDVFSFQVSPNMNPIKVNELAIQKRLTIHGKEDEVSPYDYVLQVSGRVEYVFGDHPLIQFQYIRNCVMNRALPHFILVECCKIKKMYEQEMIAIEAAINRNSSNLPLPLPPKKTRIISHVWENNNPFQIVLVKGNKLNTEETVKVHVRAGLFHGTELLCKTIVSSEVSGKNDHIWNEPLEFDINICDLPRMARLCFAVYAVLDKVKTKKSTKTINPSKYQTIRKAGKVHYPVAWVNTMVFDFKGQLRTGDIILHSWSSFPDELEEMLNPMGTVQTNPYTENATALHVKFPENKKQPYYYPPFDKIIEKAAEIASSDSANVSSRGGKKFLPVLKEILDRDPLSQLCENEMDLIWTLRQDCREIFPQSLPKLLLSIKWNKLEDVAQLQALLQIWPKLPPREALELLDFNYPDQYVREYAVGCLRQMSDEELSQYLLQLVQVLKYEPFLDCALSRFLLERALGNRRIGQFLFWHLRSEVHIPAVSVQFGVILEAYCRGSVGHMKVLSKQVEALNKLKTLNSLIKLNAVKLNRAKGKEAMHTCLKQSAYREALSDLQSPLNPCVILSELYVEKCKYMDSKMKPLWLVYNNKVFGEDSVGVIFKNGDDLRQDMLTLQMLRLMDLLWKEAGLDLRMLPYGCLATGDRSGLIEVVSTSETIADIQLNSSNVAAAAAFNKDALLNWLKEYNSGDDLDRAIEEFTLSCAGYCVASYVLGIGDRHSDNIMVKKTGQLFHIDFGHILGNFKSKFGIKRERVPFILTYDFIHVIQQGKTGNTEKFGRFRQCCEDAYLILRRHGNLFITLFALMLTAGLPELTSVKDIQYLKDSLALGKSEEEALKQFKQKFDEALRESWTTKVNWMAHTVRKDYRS
PI3Kβ, sequence (P27986 whole entry partner, canonical isoform): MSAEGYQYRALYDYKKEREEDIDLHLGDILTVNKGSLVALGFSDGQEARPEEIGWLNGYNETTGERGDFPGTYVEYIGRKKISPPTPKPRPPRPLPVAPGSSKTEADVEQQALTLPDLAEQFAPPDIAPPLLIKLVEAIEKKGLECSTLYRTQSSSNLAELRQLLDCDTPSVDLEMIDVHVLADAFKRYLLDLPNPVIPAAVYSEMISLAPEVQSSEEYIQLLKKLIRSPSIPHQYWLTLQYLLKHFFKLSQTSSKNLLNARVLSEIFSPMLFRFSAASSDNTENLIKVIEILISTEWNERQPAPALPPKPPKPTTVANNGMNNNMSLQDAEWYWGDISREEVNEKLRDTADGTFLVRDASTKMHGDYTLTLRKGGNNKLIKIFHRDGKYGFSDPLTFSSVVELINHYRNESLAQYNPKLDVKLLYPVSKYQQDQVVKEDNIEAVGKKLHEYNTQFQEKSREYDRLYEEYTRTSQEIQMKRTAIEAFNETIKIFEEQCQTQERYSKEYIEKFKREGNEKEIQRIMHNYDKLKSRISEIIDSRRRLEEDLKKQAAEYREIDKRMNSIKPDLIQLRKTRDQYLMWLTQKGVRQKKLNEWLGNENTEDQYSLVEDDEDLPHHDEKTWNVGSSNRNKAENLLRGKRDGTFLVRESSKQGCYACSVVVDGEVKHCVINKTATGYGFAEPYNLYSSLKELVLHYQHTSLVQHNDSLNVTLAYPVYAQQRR

SMILES	pIC50
CCc1nc2c(-c3nnc(Cl)[nH]3)cc(N3CCOCC3)cc2n1-c1ccnc2c(F)ccc(F)c12 [Example 179, 4-[7-(5-chloro-4H-1,2,4-triazol-3-yl)-3-(5,8-difluoroquinolin-4-yl)-2-ethylbenzimidazol-5-yl]morpholine]	7.36
CCc1nc2c(-c3nnc[nH]3)cc(N3CCOCC3)cc2n1-c1c(C)cnc2c(C#N)cccc12 (atropisomer, axis not shown) [Compound 364, 4-(2-ethyl-6-morpholino-4-(4H-1,2,4-triazol-3-yl)-1H-benzo[d]imidazol-1-yl)-3-methylquinoline-8-carbonitrile]	7.60
CCc1nc2c(-c3cnc[nH]3)cc(N3CCOCC3)cc2n1-c1ccnc2c(F)ccc(F)c12 [Example 337, 4-[3-(5,8-difluoroquinolin-4-yl)-2-ethyl-7-(1H-imidazol-5-yl)benzimidazol-5-yl]morpholine]	7.70
CCCc1nc2c(-c3nc(C)cs3)cc(N3CCOCC3)cc2n1-c1ccnc2c(F)ccc(F)c12 [Example 235, 4-[3-(5,8-difluoroquinolin-4-yl)-7-(4-methyl-1,3-thiazol-2-yl)-2-propylbenzimidazol-5-yl]morpholine]	7.77
Fc1cccc2c(-n3c(C4CC4)nc4c(-c5ncco5)cc(N5CCOCC5)cc43)ccnc12 [Example 214, 4-[2-cyclopropyl-3-(8-fluoroquinolin-4-yl)-7-(1,3-oxazol-2-yl)benzimidazol-5-yl]morpholine]	7.25
CCCc1nc2c(-c3nnc[nH]3)cc(N3CCOCC3)cc2n1-c1ccnc2c(Cl)cc(F)cc12 [Example 33, 4-(1-(8-chloro-6-fluoroquinolin-4-yl)-2-propyl-4-(4H-1,2,4-triazol-3-yl)-1H-benzo[d]imidazol-6-yl)morpholine]	8.00
CCc1nc2c(-c3ncc[nH]3)cc(N3CCOCC3)cc2n1-c1ccnc2c(F)ccc(F)c12 (atropisomer, axis not shown) [Compound 371, 4-(1-(5,8-difluoroquinolin-4-yl)-2-ethyl-4-(1H-imidazol-2-yl)-1H-benzo[d]imidazol-6-yl)morpholine]	5.17
Cc1csc(-c2cc(N3CCOCC3)cc3c2nc(C2CC2)n3-c2ccnc3c(F)ccc(F)c23)n1 [Example 237, 4-[2-cyclopropyl-3-(5,8-difluoroquinolin-4-yl)-7-(4-methyl-1,3-thiazol-2-yl)benzimidazol-5-yl]morpholine]	7.30
c1ccc2c(-n3c(C4COC4)nc4c(-c5nnc[nH]5)cc(N5CCOCC5)cc43)ccnc2c1 [Example 24, 4-(2-(oxetan-3-yl)-1-(quinolin-4-yl)-4-(4H-1,2,4-triazol-3-yl)-1H-benzo[d]imidazol-6-yl)morpholine]	5.82
CCc1nc2c(-c3cnc[nH]3)cc(N3CCOCC3)cc2n1-c1cc(C)nc2c(F)cccc12 [Example 211, 4-[2-ethyl-3-(8-fluoro-2-methylquinolin-4-yl)-7-(1H-imidazol-5-yl)benzimidazol-5-yl]morpholine]	7.66
CCCc1nc2c(-c3nnc[nH]3)cc(N3CCOCC3)cc2n1-c1ccnc2c(F)cccc12 (atropisomer, axis not shown) [Compound 355, 4-[3-(8-fluoroquinolin-4-yl)-2-propyl-7-(4H-1,2,4-triazol-3-yl)benzimidazol-5-yl]morpholine]	5.60
Fc1c(N2CCOCC2)cc(-c2nnc[nH]2)c2ncn(-c3ccnc4c(Cl)cccc34)c12 [Example 149, 4-(1-(8-chloroquinolin-4-yl)-7-fluoro-4-(4H-1,2,4-triazol-3-yl)-1H-benzo[d]imidazol-6-yl)morpholine]	7.00
CCCc1nc2c(-c3ncco3)cc(N3CCOCC3)cc2n1-c1ccnc2c(F)ccc(F)c12 [Example 230, 4-(1-(5,8-difluoroquinolin-4-yl)-4-(oxazol-2-yl)-2-propyl-1H-benzo[d]imidazol-6-yl)morpholine]	8.15
Fc1ccc(Cl)c2nccc(-n3c(C4CC4)nc4c(-c5nccs5)cc(N5CCOCC5)cc43)c12 [Example 247, 4-(1-(8-chloro-5-fluoroquinolin-4-yl)-2-cyclopropyl-4-(thiazol-2-yl)-1H-benzo[d]imidazol-6-yl)morpholine]	7.92
Cc1nc2c(-c3cnc(Cl)[nH]3)cc(N3CCOCC3)cc2n1-c1ccnc2c(F)ccc(F)c12 (atropisomer, axis not shown) [Compound 373, 4-(4-(2-chloro-1H-imidazol-5-yl)-1-(5,8-difluoroquinolin-4-yl)-2-methyl-1H-benzo[d]imidazol-6-yl)morpholine]	6.00
Fc1ccc(Cl)c2nccc(-n3c(C4CC4)nc4c(-c5nnc(Cl)[nH]5)cc(N5CCOCC5)cc43)c12 [Example 174, 4-(4-(5-chloro-4H-1,2,4-triazol-3-yl)-1-(8-chloro-5-fluoroquinolin-4-yl)-2-cyclopropyl-1H-benzo[d]imidazol-6-yl)morpholine]	7.89
CCc1c(C)nc2ccccc2c1-n1cnc2c(-c3nnc[nH]3)cc(N3CCOCC3)cc21 [Example 71, 4-[3-(3-ethyl-2-methylquinolin-4-yl)-7-(4H-1,2,4-triazol-3-yl)benzimidazol-5-yl]morpholine]	7.64
Cc1csc(-c2cc(N3CCOCC3)cc3c2nc(C)n3-c2ccnc3c(F)ccc(F)c23)n1 [Example 233, 4-[3-(5,8-difluoroquinolin-4-yl)-2-methyl-7-(4-methyl-1,3-thiazol-2-yl)benzimidazol-5-yl]morpholine]	8.10
CCCc1nc2c(-c3nnc[nH]3)cc(N3CCOCC3)cc2n1-c1ccnc2c(F)cc(F)cc12 [Example 146, 4-[3-(6,8-difluoroquinolin-4-yl)-2-propyl-7-(4H-1,2,4-triazol-3-yl)benzimidazol-5-yl]morpholine]	7.00

The next lines start with the values.

pIC50	SMILES
5.68	Cc1nc2c(-c3ccc(Cl)s3)cc(N3CCOCC3)cc2n1-c1ccnc2c(Cl)cccc12 [Example 267, 4-[3-(8-chloroquinolin-4-yl)-7-(5-chlorothiophen-2-yl)-2-methylbenzimidazol-5-yl]morpholine]
7.89	Cc1cccc2c(-n3c(C)nc4c(-c5nnc[nH]5)cc(N5CCOCC5)cc43)ccnc12 [Example 109, 4-[2-methyl-3-(8-methylquinolin-4-yl)-7-(4H-1,2,4-triazol-3-yl)benzimidazol-5-yl]morpholine]
8.15	Cc1nc2c(-c3nnc[nH]3)cc(N3CCOCC3)cc2n1-c1ccnc2c(Cl)cccc12 [Example 101, 4-[3-(8-chloroquinolin-4-yl)-2-methyl-7-(4H-1,2,4-triazol-3-yl)benzimidazol-5-yl]morpholine]
6.20	Cc1cnc(-c2cc(N3CCOCC3)cc3c2nc(C)n3-c2ccnc3c(Cl)cccc23)s1 [Example 215, 4-[3-(8-chloroquinolin-4-yl)-2-methyl-7-(5-methyl-1,3-thiazol-2-yl)benzimidazol-5-yl]morpholine]
5.07	Cc1nc2c(-c3ccncc3)cc(N3CCOCC3)cc2n1-c1ccnc2c(Cl)cccc12 [Example 319, 4-[3-(8-chloroquinolin-4-yl)-2-methyl-7-pyridin-4-ylbenzimidazol-5-yl]morpholine]
7.89	CCCc1nc2c(-c3cnc(Cl)[nH]3)cc(N3CCOCC3)cc2n1-c1ccnc2c(F)cccc12 [Example 305, 4-[7-(2-chloro-1H-imidazol-5-yl)-3-(8-fluoroquinolin-4-yl)-2-propylbenzimidazol-5-yl]morpholine]
8.52	Clc1cccc2c(-n3cnc4c(-c5ncco5)cc(N5CCOCC5)cc43)ccnc12 [Example 224, 4-[3-(8-chloroquinolin-4-yl)-7-(1,3-oxazol-2-yl)benzimidazol-5-yl]morpholine]
8.30	CCc1nc2c(-c3ncco3)cc(N3CCOCC3)cc2n1-c1ccnc2c(Cl)cccc12 [Example 226, 4-[3-(8-chloroquinolin4-yl)-2-ethyl-7-(1,3-oxazol-2-yl)benzimidazol-5-yl]morpholine]
7.77	Cc1cc(-n2c(C)nc3c(-c4nnc[nH]4)cc(N4CCOCC4)cc32)c2ccccc2n1 [Example 69, 4-[2-methyl-3-(2-methylquinolin-4-yl)-7-(4H-1,2,4-triazol-3-yl)benzimidazol-5-yl]morpholine]
7.49	Cc1nnc(-c2cc(N3CCOCC3)cc3c2nc(CC2CC2)n3-c2ccnc3c(Cl)cccc23)[nH]1 [Example 8, 4-(1-(8-chloroquinolin-4-yl)-2-(cyclopropylmethyl)-4-(5-methyl-4H-1,2,4-triazol-3-yl)-1H-benzo[d]imidazol-6-yl)morpholine]
6.34	Cc1nc2c(-c3cscn3)cc(N3CCOCC3)cc2n1-c1ccnc2ccccc12 [Example 265, 4-[2-methyl-3-quinolin-4-yl-7-(1,3-thiazol-4-yl)benzimidazol-5-yl]morpholine]
7.33	Cc1nc2c(-c3ccccc3)cc(N3CCOCC3)cc2n1-c1ccnc2c(Cl)cccc12 [Example 311, 4-(1-(8-chloroquinolin-4-yl)-2-methyl-4-phenyl-1H-benzo[d]imidazol-6-yl)morpholine]
6.21	Cc1nc2c(-c3cnco3)cc(N3CCOCC3)cc2n1-c1ccnc2c(Cl)cccc12 [Example 277, 4-[3-(8-chloroquinolin-4-yl)-2-methyl-7-(1,3-oxazol-5-yl)benzimidazol-5-yl]morpholine]
7.96	Cc1nc2c(-c3nnc[nH]3)cc(N3CCOCC3)cc2n1-c1ccnc2cccc(F)c12 [Example 81, 4-[3-(5-fluoroquinolin-4-yl)-2-methyl-7-(4H-1,2,4-triazol-3-yl)benzimidazol-5-yl]morpholine]
6.29	Cc1c[nH]c(-c2cc(N3CCOCC3)cc3c2nc(C)n3-c2ccnc3c(Cl)cccc23)n1 [Example 176, 4-[3-(8-chloroquinolin-4-yl)-2-methyl-7-(4-methyl-1H-imidazol-2-yl)benzimidazol-5-yl]morpholine]
5.11	Cc1nc2c(-c3ccnnc3)cc(N3CCOCC3)cc2n1-c1ccnc2c(Cl)cccc12 [Example 314, 4-(1-(8-chloroquinolin-4-yl)-2-methyl-4-(pyridazin-4-yl)-1H-benzo[d]imidazol-6-yl)morpholine]
